US20150225369A1, “DDR2 INHIBITORS FOR THE TREATMENT OF OSTEOARTHRITIS” (Merck Patent GmbH, priority 2012, published 2015)
Like-named read-outs stand apart in the source and are kept apart here.

How the values were obtained:
[1] = target: T1, HEK293 transfected with human DDR2 (Homo sapiens, UniProt Q16832); assay: Phospho-DDR2 cellular assay (collagen II induced DDR2 phosphorylation, ELISA); format: cell-based; conditions: read-out: IC50 [p-DDR2]
T1 construct: expressed in transfected cells; host or cells: HEK293 (PLT460F_(DDR2)-P7-1)
T1 sequence (Q16832 22-855): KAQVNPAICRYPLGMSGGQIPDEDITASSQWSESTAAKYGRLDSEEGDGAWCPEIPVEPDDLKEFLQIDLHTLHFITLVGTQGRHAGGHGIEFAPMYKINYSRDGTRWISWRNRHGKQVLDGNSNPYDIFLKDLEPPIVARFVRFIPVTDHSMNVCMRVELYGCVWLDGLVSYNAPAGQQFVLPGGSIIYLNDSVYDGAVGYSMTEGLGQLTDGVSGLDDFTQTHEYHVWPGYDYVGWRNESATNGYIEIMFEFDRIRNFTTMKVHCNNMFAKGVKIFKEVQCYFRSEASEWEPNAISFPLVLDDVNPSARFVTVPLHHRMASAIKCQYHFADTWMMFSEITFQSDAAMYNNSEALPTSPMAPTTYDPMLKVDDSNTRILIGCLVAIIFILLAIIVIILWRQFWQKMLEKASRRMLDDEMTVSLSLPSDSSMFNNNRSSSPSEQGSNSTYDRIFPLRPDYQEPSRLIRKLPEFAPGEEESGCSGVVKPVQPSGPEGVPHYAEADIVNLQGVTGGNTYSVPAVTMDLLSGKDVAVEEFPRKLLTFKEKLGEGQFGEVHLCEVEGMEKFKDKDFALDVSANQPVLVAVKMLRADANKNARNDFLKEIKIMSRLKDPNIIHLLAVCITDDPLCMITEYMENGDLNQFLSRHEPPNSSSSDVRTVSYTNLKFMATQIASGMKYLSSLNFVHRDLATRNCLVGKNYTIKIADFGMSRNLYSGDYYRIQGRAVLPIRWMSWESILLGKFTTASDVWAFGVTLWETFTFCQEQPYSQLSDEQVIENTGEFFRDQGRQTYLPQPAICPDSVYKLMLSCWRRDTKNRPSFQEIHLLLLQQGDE
In short: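 Cells seeded 48 h in 10% FBS, serum-starved 8 h, then given compound (5% DMSO) with 50 μg/ml chicken collagen II for 16 h at 37 °C. Lysates captured on anti-DDR2 antibody plates; phospho-DDR2 detected with HRP anti-phosphotyrosine antibody by chemiluminescence.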

[2] = target: T2, His-tagged human recombinant DDR-2 kinase domain (His-TEV-DDR2 467-855 aa) (Homo sapiens, UniProt Q16832); assay: Autophosphorylation assay for biochemical activity testing of DDR2 (HTRF)
T2 construct: His-TEV-DDR2 467-855 aa
T2 sequence (Q16832 467-855): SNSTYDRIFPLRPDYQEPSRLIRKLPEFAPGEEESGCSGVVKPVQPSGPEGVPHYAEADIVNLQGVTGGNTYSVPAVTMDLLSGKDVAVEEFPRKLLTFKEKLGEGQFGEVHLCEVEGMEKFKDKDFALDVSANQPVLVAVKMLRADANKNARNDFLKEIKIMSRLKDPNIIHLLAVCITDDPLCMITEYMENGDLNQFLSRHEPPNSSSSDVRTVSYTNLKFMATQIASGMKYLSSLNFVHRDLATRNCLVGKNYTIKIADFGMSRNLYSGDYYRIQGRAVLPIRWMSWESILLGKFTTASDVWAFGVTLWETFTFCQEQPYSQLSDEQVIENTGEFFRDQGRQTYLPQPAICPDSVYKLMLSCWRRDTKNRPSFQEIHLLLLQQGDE
In short: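 Phospho-tyrosine was detected by HTRF between XL665 anti-6His and cryptate anti-phosphotyrosine PT66 antibodies, using the emission ratio. Inhibition was referenced to the inhibitor-free reaction.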

[3] = biochemical DDR2 autophosphorylation
[4] = HEK293 transfected with human DDR2, 50 μg/ml chicken collagen II, 16 h
[5] = 4 nM DDR2 kinase domain, 150 μM ATP, 150 min at 22° C.

Q: For `CNC(=O)c1cc(Oc2ccc(CNC(=O)Nc3cc(C(F)(F)F)ccc3OCCN)cc2C)ccn1` [compound 155, 4-(4-{3-[2-(2-Amino-ethoxy)-5-trifluoromethyl-phenyl]-ureidomethyl}-2-methyl-phenoxy)-pyridine-2-carboxylic acid methylamide], which IC50 ([1]; cellular phospho-DDR2) is on record?
A: 0.018 µM

Q: What about the IC50 [2, 3] of the same compound?
A: 0.04 µM

Q: With `CNC(=O)c1cc(Oc2ccc(CNC(=O)Nc3cc(C(F)(F)F)ccc3OCCNC(C)C)cc2)ccn1` [compound 172, 4-(4-{3-[2-(2-Isopropylamino-ethoxy)-5-trifluoromethyl-phenyl]-ureidomethyl}-phenoxy)-pyridine-2-carboxylic acid methylamide] as the compound, how does the IC50 ([1]; cellular phospho-DDR2) read?
A: 0.031 µM

Q: And the IC50 [2, 3]?
A: 0.14 µM

Q: For `Cc1cc(Oc2ccc(CNC(=O)Nc3cc(C(F)(F)F)cnc3Cl)cc2)ccn1` [compound 29], which IC50 [1, 4] is on record?
A: 0.094 µM

Q: What about the IC50 [2, 5] of the same compound?
A: 0.35 µM

Q: `CNC(=O)c1cc(Oc2ccc(CNC(=O)Nc3ccc(OC)nc3)cc2)ccn1` [compound 227, 4-{4-[3-(6-Methoxy-pyridin-3-yl)-ureidomethyl]-phenoxy}-pyridine-2-carboxylic acid methylamide] was tested. Which IC50 ([1]; cellular phospho-DDR2) did it give?
A: 6.3 µM

Q: What about the IC50 [2, 3] of the same compound?
A: 5.5 µM

Q: For `CNCCOc1cc(Cl)c(C)cc1NC(=O)NCc1ccc(Oc2ccnc(C(=O)NC)c2)cc1` [compound 125, 4-(4-{3-[4-Chloro-5-methyl-2-(2-methylamino-ethoxy)-phenyl]-ureidomethyl}-phenoxy)-pyridine-2-carboxylic acid methylamide], which IC50 ([1]; cellular phospho-DDR2) is on record?
A: 0.052 µM

Q: And the IC50 [2, 3]?
A: 0.187 µM

Q: With `CNC(=O)c1cc(Oc2ccc(CNC(=O)Nc3cc(Cl)ccc3OC)cc2C)ccn1` [compound 100, 4-{4-[3-(5-Chloro-2-methoxy-phenyl)-ureidomethyl]-2-methyl-phenoxy}-pyridine-2-carboxylic acid methylamide] as the compound, how does the IC50 ([1]; cellular phospho-DDR2) read?
A: 0.025 µM

Q: What about the IC50 [2, 3] of the same compound?
A: 0.12 µM

Q: `Cn1cc(C(F)(F)F)cc(NC(=O)NCc2ccc(Oc3ccnc4ccc(C(F)(F)F)cc34)cc2)c1=O` [compound 2] was tested. Which IC50 [1, 4] did it give?
A: 5.6 µM

Q: And the IC50 [2, 5]?
A: 0.4 µM

Q: What does the source list for `CNC(=O)c1cc(Oc2ccc(CNC(=O)Nc3cc(C)c(Cl)cc3OCCCN(C)C)cc2)ccn1` [compound 153, 4-(4-{3-[4-Chloro-2-(3-dimethylamino-propoxy)-5-methyl-phenyl]-ureidomethyl}-phenoxy)-pyridine-2-carboxylic acid methylamide]?
A: IC50 ([1]; cellular phospho-DDR2): 0.055 µM; IC50 [2, 3]: 0.14 µM

Q: `CNCCOc1ccccc1NC(=O)NCc1ccc(Oc2ccnc(C(=O)NC)c2)cc1` [compound 169, 4-(4-{3-[2-(2-Methylamino-ethoxy)-phenyl]-ureidomethyl}-phenoxy)-pyridine-2-carboxylic acid methylamide] was tested. Which IC50 ([1]; cellular phospho-DDR2) did it give?
A: 1.9 µM

Q: And the IC50 [2, 3]?
A: 2.8 µM

Q: Which results are given for `CNC(=O)c1cc(Oc2ccc(CNC(=O)Nc3ccc(C)cn3)cc2C)ccn1` [compound 211, 4-{2-Methyl-4-[3-(5-methyl-pyridin-2-yl)-ureidomethyl]-phenoxy}-pyridine-2-carboxylic acid methylamide]?
A: IC50 ([1]; cellular phospho-DDR2): 0.63 µM; IC50 [2, 3]: 0.78 µM

Q: For `CNCCOc1cc(Cl)c(C(F)(F)F)cc1NC(=O)NCc1ccc(Oc2ccnc(C(=O)NC)c2)cc1` [compound 127, 4-(4-{3-[4-Chloro-2-(2-methylamino-ethoxy)-5-trifluoromethyl-phenyl]-ureidomethyl}-phenoxy)-pyridine-2-carboxylic acid methylamide], which IC50 ([1]; cellular phospho-DDR2) is on record?
A: 0.034 µM

Q: And the IC50 [2, 3]?
A: 0.047 µM

Q: With `CNC(=O)c1cc(Oc2ccc(CNC(=O)Nc3cc(C)c(Cl)cc3OC)cc2)ccn1` [compound 78, 4-{4-[3-(4-Chloro-2-methoxy-5-methyl-phenyl)-ureidomethyl]-phenoxy}-pyridine-2-carboxylic acid methylamide] as the compound, how does the IC50 ([1]; cellular phospho-DDR2) read?
A: 0.024 µM

Q: What about the IC50 [2, 3] of the same compound?
A: 0.1 µM

Q: How did the IC50 ([1]; cellular phospho-DDR2) turn out when `CNC(=O)c1cc(Oc2ccc(CNC(=O)Nc3cc(C(F)(F)F)ccc3OCC(N)=O)cc2)ccn1` [compound 190, 4-{4-[3-(2-Carbamoylmethoxy-5-trifluoromethyl-phenyl)-ureidomethyl]-phenoxy}-pyridine-2-carboxylic acid methylamide] was run?
A: 0.04 µM

Q: What about the IC50 [2, 3] of the same compound?
A: 0.12 µM

Q: `Cn1cc(C(F)(F)F)cc(NC(=O)NCc2ccc(Oc3ccnc4[nH]ccc34)cc2)c1=O` [compound 3] was tested. Which IC50 [1, 4] did it give?
A: 0.02 µM

Q: What about the IC50 [2, 5] of the same compound?
A: 0.066 µM

Q: What does the source list for `CNC(=O)c1cc(Oc2ccc(CNC(=O)Nc3cc(C(F)(F)F)ccc3OCC(C)(C)N)cc2)ccn1` [compound 160, 4-(4-{3-[2-(2-Amino-2-methyl-propoxy)-5-trifluoromethyl-phenyl]-ureidomethyl}-phenoxy)-pyridine-2-carboxylic acid methylamide]?
A: IC50 ([1]; cellular phospho-DDR2): 0.095 µM; IC50 [2, 3]: 0.36 µM

Q: `COc1ncc(Cl)cc1NC(=O)NCc1ccc(Oc2ccnc(C)c2)cc1` [compound 27] was tested. Which IC50 [1, 4] did it give?
A: 0.042 µM

Q: And the IC50 [2, 5]?
A: 0.19 µM

Q: With `CNC(=O)c1cc(Oc2ccc(CNC(=O)Nc3cc(C)c(Cl)cc3OC3CCNCC3)cc2C)ccn1` [compound 142, 4-(4-{3-[4-Chloro-5-methyl-2-(piperidin-4-yloxy)-phenyl]-ureidomethyl}-2-methyl-phenoxy)-pyridine-2-carboxylic acid methylamide] as the compound, how does the IC50 ([1]; cellular phospho-DDR2) read?
A: 0.033 µM

Q: And the IC50 [2, 3]?
A: 0.036 µM

Q: With `CNC(=O)c1cc(Oc2ccc(C(C)NC(=O)Nc3ccc(Cl)c(Cl)c3)cc2)ccn1` (stereo not drawn) [compound 71, 4-(4-{1-[3-(3,4-Dichloro-phenyl)-ureido]-ethyl}-phenoxy)-pyridine-2-carboxylic acid methylamide] as the compound, how does the IC50 ([1]; cellular phospho-DDR2) read?
A: 1.8 µM

Q: Which IC50 ([1]; cellular phospho-DDR2) does the source give for `CNC(=O)c1cc(Oc2ccc(CNC(=O)Nc3ccc(Cl)cc3Cl)cc2)ccn1` [compound 8] here?
A: 0.255 µM

Q: For `CNC(=O)c1cc(Oc2ccc(CNC(=O)Nc3cc(C(F)(F)F)ccc3CCN)cc2)ccn1` [compound 175, 4-(4-{3-[2-(2-Amino-ethyl)-5-trifluoromethyl-phenyl]-ureidomethyl}-phenoxy)-pyridine-2-carboxylic acid methylamide], which IC50 ([1]; cellular phospho-DDR2) is on record?
A: 1.3 µM

Q: Which IC50 ([1]; cellular phospho-DDR2) does the source give for `CNC(=O)c1cc(Oc2ccc(CNC(=O)Nc3cc(C(F)(F)F)ccc3CNC(C)=O)cc2C)ccn1` [compound 214, 4-(4-{3-[2-(Acetylamino-methyl)-5-trifluoromethyl-phenyl]-ureidomethyl}-2-methyl-phenoxy)-pyridine-2-carboxylic acid methylamide] here?
A: 0.045 µM

Q: With `CNC(=O)c1cc(Oc2ccc(CNC(=O)Nc3cc(C(F)(F)F)ccc3N3CCNCC3)cc2C)ccn1` [compound 184, 4-{2-Methyl-4-[3-(2-piperazin-1-yl-5-trifluoromethyl-phenyl)-ureidomethyl]-phenoxy}-pyridine-2-carboxylic acid methylamide] as the compound, how does the IC50 ([1]; cellular phospho-DDR2) read?
A: 0.076 µM

Q: `O=C(NCc1ccc(Oc2ccnc(C(=O)O)c2)cc1)Nc1ccc(Cl)c(C(F)(F)F)c1` [compound 99, 4-{4-[3-(4-Chloro-3-trifluoromethyl-phenyl)-ureidomethyl]-phenoxy}-pyridine-2-carboxylic acid] was tested. Which IC50 ([1]; cellular phospho-DDR2) did it give?
A: 2.85 µM

Q: How did the IC50 ([1]; cellular phospho-DDR2) turn out when `CNC(=O)c1cc(Oc2ccc(CNC(=O)Nc3cc(C(F)(F)F)ccc3O)cc2C)ccn1` [compound 204, 4-{4-[3-(2-Hydroxy-5-trifluoromethyl-phenyl)-ureidomethyl]-2-methyl-phenoxy}-pyridine-2-carboxylic acid methylamide] was run?
A: 0.038 µM

Q: How did the IC50 ([1]; cellular phospho-DDR2) turn out when `CNC(=O)c1cc(Oc2ccc(CNC(=O)Nc3cc(C(F)(F)F)ccc3CN)cc2C)ccn1` [compound 221, 4-{4-[3-(2-Aminomethyl-5-trifluoromethyl-phenyl)-ureidomethyl]-2-methyl-phenoxy}-pyridine-2-carboxylic acid methylamide] was run?
A: 0.18 µM
